In patent publication US20260158017A1, “KIF18A INHIBITOR” (WIGEN BIOMEDICINE TECHNOLOGY (SHANGHAI) CO., LTD., priority 2021, published 2026):

Molecular target: T1, Recombinant human KIF18A (1-467His-tagged) protein (Homo sapiens, UniProt Q8NI77)
T1 construct: Recombinant human KIF18A (1-467His-tagged) protein; His; made in house
Experiment: KIF18A enzyme assay (microtubule-stimulated ATPase activity, ADP-Glo)
Type: biochemical
Conditions: 30 nM KIF18A, 75 μM ATP, 30 μg/mL pig microtubules; read-out: Inhibitory activity against KIF18A IC50
Outline: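 Buffer 15 mM Tris pH 7.5, 10 mM MgCl2, 0.01% Pluronic F-68, 1 μM paclitaxel, 30 μg/mL pig microtubules; reactions at room temperature. IC50 from inhibition relative to DMSO.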

T1 sequence (Q8NI77 1-467): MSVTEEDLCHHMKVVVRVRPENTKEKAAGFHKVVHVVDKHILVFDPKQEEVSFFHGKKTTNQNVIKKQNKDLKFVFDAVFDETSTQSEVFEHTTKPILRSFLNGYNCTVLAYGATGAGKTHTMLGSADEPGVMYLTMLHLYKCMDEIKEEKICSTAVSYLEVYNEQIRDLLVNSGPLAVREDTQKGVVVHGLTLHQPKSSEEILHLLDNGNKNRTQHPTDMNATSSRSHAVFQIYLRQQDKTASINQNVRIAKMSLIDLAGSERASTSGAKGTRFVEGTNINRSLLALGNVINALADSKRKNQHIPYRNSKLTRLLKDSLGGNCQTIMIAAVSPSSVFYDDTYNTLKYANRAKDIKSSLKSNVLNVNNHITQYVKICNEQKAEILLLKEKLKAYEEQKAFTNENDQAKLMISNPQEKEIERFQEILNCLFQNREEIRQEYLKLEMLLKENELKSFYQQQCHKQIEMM
T1 sequence (P02550 whole entry partner): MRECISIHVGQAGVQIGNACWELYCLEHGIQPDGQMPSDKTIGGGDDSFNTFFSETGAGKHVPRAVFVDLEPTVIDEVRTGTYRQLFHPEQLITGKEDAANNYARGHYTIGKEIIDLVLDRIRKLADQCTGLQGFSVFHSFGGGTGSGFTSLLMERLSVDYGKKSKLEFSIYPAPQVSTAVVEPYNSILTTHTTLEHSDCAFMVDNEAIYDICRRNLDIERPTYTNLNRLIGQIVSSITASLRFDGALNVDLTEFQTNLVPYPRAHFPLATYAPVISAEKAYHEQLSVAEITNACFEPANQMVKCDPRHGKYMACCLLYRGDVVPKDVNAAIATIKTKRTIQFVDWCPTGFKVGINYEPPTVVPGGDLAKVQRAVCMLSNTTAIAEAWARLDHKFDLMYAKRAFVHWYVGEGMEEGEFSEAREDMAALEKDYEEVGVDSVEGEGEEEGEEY
T1 sequence (P02554 whole entry partner): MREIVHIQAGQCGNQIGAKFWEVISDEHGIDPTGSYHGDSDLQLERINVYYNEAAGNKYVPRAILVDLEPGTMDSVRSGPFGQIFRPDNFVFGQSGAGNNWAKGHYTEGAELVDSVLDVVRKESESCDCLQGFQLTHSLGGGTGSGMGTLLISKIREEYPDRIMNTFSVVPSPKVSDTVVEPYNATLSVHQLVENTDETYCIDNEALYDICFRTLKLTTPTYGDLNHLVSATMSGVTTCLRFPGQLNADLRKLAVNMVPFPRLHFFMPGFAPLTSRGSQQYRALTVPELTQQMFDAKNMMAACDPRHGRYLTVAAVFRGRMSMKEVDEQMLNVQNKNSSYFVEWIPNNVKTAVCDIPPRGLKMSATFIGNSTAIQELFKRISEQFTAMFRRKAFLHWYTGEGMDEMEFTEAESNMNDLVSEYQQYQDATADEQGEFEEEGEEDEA

`CC(C)(CO)Nc1cc(C(=O)Nc2cnc(NS(=O)(=O)CCO)cc2N2CCC3(CC2)CC3)ccc1[N+](=O)[O-]` [Compound 203] and `CC(C)(CO)Nc1cc(C(=O)Nc2cnc(S(=O)(=O)NCCO)cc2N2CCC3(CC2)CC3)ccc1[N+](=O)[O-]` [Compound 219] cannot be ordered by IC50: ≤ 100 nM for the first, 100 to 500 nM for the second.

`O=C(Nc1cnc(NS(=O)(=O)CCO)cc1N1CCC2(CC1)CC2)c1ccc([N+](=O)[O-])c(N2CCOCC2)c1` [Compound 204] and `O=C(Nc1cnc(S(=O)(=O)NCCO)cc1N1CCC2(CC1)CC2)c1ccc([N+](=O)[O-])c(N2CCOCC2)c1` [Compound 220] cannot be ordered by IC50: ≤ 100 nM for the first, 100 to 500 nM for the second.

`C[C@@H](CO)S(=O)(=O)Nc1cc(N2CCC3(CC2)CC3)c(NC(=O)c2ccc([N+](=O)[O-])c(N3CCC(F)(F)CC3)c2)cn1` [Compound 205] and `C[C@H](CO)S(=O)(=O)Nc1cc(N2CCC3(CC2)CC3)c(NC(=O)c2ccc([N+](=O)[O-])c(N3CCC(F)(F)CC3)c2)cn1` [Compound 206] cannot be ordered by IC50: ≤ 100 nM for the first, ≤ 100 nM for the second.

`C[C@@H]1CN(c2cc(C(=O)Nc3cnc(NS(=O)(=O)[C@@H](C)CO)cc3N3CCC4(CC3)CC4)ccc2[N+](=O)[O-])CCO1` [Compound 207] and `C[C@@H]1CN(c2cc(C(=O)Nc3cnc(NS(=O)(=O)[C@H](C)CO)cc3N3CCC4(CC3)CC4)ccc2[N+](=O)[O-])CCO1` [Compound 208] cannot be ordered by IC50: ≤ 100 nM for the first, ≤ 100 nM for the second.

`O=C(Nc1cnc(S(=O)(=O)NCCO)cc1N1CCC2(CC1)CC2)c1ccc([N+](=O)[O-])c(N2CCC(F)(F)CC2)c1` [Compound 209] and `O=C(Nc1cnc(S(=O)(=O)NCCO)cc1N1CCC2(CC1)CC2)c1ccc([N+](=O)[O-])c(N2CC(F)(F)C2)c1` [Compound 212] fall in the same range of IC50: 100 to 500 nM for the first, 100 to 500 nM for the second.

`C[C@@H]1CN(c2cc(C(=O)Nc3cnc(S(=O)(=O)NCCO)cc3N3CCC4(CC3)CC4)ccc2[N+](=O)[O-])CCO1` [Compound 210] and `C[C@H]1CN(c2cc(C(=O)Nc3cnc(S(=O)(=O)NCCO)cc3N3CCC4(CC3)CC4)ccc2[N+](=O)[O-])CCO1` [Compound 211] fall in the same range of IC50: 100 to 500 nM for the first, 100 to 500 nM for the second.

`O=C(Nc1cnc(S(=O)(=O)NCCO)cc1N1CCC2(CC1)CC2)c1ccc([N+](=O)[O-])c(OCCC(F)(F)F)c1` [Compound 213] and `O=C(Nc1cnc(S(=O)(=O)NCCO)cc1N1CCC2(CC1)CC2)c1ccc([N+](=O)[O-])c(OCCC(F)(F)F)n1` [Compound 245] fall in the same range of IC50: 100 to 500 nM for the first, 100 to 500 nM for the second.

`O=C(Nc1cnc(S(=O)(=O)NCCO)cc1N1CCC2(CC1)CC2)c1ccc([N+](=O)[O-])c(N2CCC3(CC3)C2)c1` [Compound 214] and `CC1(F)CCN(c2cc(C(=O)Nc3cnc(S(=O)(=O)NCCO)cc3N3CCC4(CC3)CC4)ccc2[N+](=O)[O-])C1` (centres unmarked) [Compound 216] fall in the same range of IC50: 100 to 500 nM for the first, 100 to 500 nM for the second.

`O=C(Nc1cnc(S(=O)(=O)NCCO)cc1N1CCC2(CC1)CC2)c1ccc([N+](=O)[O-])c(OC2CCC2)c1` [Compound 215] and `O=C(Nc1cnc(S(=O)(=O)NCCO)cc1N1CCC2(CC1)CC2)c1ccc([N+](=O)[O-])c(OC2CCC2)n1` [Compound 247] fall in the same range of IC50: 100 to 500 nM for the first, 100 to 500 nM for the second.

`O=C(Nc1cnc(S(=O)(=O)NCCO)cc1N1CCC2(CC1)CC2)c1ccc([N+](=O)[O-])c(N2CCC(F)CC2)c1` [Compound 217] and `O=C(Nc1cnc(S(=O)(=O)NCCO)cc1N1CCC2(CC1)CC2)c1ccc([N+](=O)[O-])c(N2CCC(F)CC2)n1` [Compound 249] fall in the same range of IC50: 100 to 500 nM for the first, 100 to 500 nM for the second.

`O=C(Nc1cnc(S(=O)(=O)NCCO)cc1N1CCC2(CC1)CC2)c1ccc([N+](=O)[O-])c(N2CC3CC3C2)c1` (centres unmarked) [Compound 218] and `O=C(Nc1cnc(S(=O)(=O)NCCO)cc1N1CCC2(CC1)CC2)c1ccc([N+](=O)[O-])c(N2CC3CC3C2)n1` (centres unmarked) [Compound 250] fall in the same range of IC50: 100 to 500 nM for the first, 100 to 500 nM for the second.

`C[C@@H](CO)NS(=O)(=O)c1cc(N2CCC3(CC2)CC3)c(NC(=O)c2ccc([N+](=O)[O-])c(N3CCC(F)(F)CC3)c2)cn1` [Compound 221] and `C[C@H](CO)NS(=O)(=O)c1cc(N2CCC3(CC2)CC3)c(NC(=O)c2ccc([N+](=O)[O-])c(N3CCC(F)(F)CC3)c2)cn1` [Compound 222] fall in the same range of IC50: 100 to 500 nM for the first, 100 to 500 nM for the second.

`C[C@@H]1CN(c2cc(C(=O)Nc3cnc(S(=O)(=O)N[C@@H](C)CO)cc3N3CCC4(CC3)CC4)ccc2[N+](=O)[O-])CCO1` [Compound 223] and `C[C@H](CO)NS(=O)(=O)c1cc(N2CCC3(CC2)CC3)c(NC(=O)c2ccc([N+](=O)[O-])c(N3CCO[C@H](C)C3)c2)cn1` [Compound 224] fall in the same range of IC50: 100 to 500 nM for the first, 100 to 500 nM for the second.

`O=C(Nc1cnc(NS(=O)(=O)CCO)cc1N1CCC2(CC1)CC2)c1ccc([N+](=O)[O-])c(N2CCC(F)(F)CC2)n1` [Compound 225] and `O=C(Nc1cnc(NS(=O)(=O)CCO)cc1N1CCC2(CC1)CC2)c1ccc([N+](=O)[O-])c(N2CC(F)(F)C2)n1` [Compound 228] cannot be ordered by IC50: ≤ 100 nM for the first, ≤ 100 nM for the second.

`C[C@@H]1CN(c2nc(C(=O)Nc3cnc(NS(=O)(=O)CCO)cc3N3CCC4(CC3)CC4)ccc2[N+](=O)[O-])CCO1` [Compound 226] and `C[C@H]1CN(c2nc(C(=O)Nc3cnc(NS(=O)(=O)CCO)cc3N3CCC4(CC3)CC4)ccc2[N+](=O)[O-])CCO1` [Compound 227] cannot be ordered by IC50: ≤ 100 nM for the first, ≤ 100 nM for the second.

`O=C(Nc1cnc(NS(=O)(=O)CCO)cc1N1CCC2(CC1)CC2)c1ccc([N+](=O)[O-])c(OCCC(F)(F)F)n1` [Compound 229] and `O=C(Nc1cnc(NS(=O)(=O)CCO)cc1N1CCC2(CC1)CC2)c1ccc([N+](=O)[O-])c(OC2CCC2)n1` [Compound 231] cannot be ordered by IC50: ≤ 100 nM for the first, ≤ 100 nM for the second.

`O=C(Nc1cnc(NS(=O)(=O)CCO)cc1N1CCC2(CC1)CC2)c1ccc([N+](=O)[O-])c(N2CCC3(CC3)C2)n1` [Compound 230] and `CC1(F)CCN(c2nc(C(=O)Nc3cnc(NS(=O)(=O)CCO)cc3N3CCC4(CC3)CC4)ccc2[N+](=O)[O-])C1` (centres unmarked) [Compound 232] cannot be ordered by IC50: ≤ 100 nM for the first, ≤ 100 nM for the second.

`O=C(Nc1cnc(NS(=O)(=O)CCO)cc1N1CCC2(CC1)CC2)c1ccc([N+](=O)[O-])c(N2CCC(F)CC2)n1` [Compound 233] and `O=C(Nc1cnc(NS(=O)(=O)CCO)cc1N1CCC2(CC1)CC2)c1ccc([N+](=O)[O-])c(N2CCOCC2)n1` [Compound 236] cannot be ordered by IC50: ≤ 100 nM for the first, ≤ 100 nM for the second.

`O=C(Nc1cnc(NS(=O)(=O)CCO)cc1N1CCC2(CC1)CC2)c1ccc([N+](=O)[O-])c(N2CC3CC3C2)n1` (centres unmarked) [Compound 234] and `C[C@@H]1CN(c2nc(C(=O)Nc3cnc(NS(=O)(=O)[C@@H](C)CO)cc3N3CCC4(CC3)CC4)ccc2[N+](=O)[O-])CCO1` [Compound 239] cannot be ordered by IC50: ≤ 100 nM for the first, ≤ 100 nM for the second.

`CC(C)(CO)Nc1nc(C(=O)Nc2cnc(NS(=O)(=O)CCO)cc2N2CCC3(CC2)CC3)ccc1[N+](=O)[O-]` [Compound 235] and `CC(C)(CO)Nc1nc(C(=O)Nc2cnc(S(=O)(=O)NCCO)cc2N2CCC3(CC2)CC3)ccc1[N+](=O)[O-]` [Compound 251] cannot be ordered by IC50: ≤ 100 nM for the first, 100 to 500 nM for the second.

`C[C@@H](CO)S(=O)(=O)Nc1cc(N2CCC3(CC2)CC3)c(NC(=O)c2ccc([N+](=O)[O-])c(N3CCC(F)(F)CC3)n2)cn1` [Compound 237] and `C[C@H](CO)S(=O)(=O)Nc1cc(N2CCC3(CC2)CC3)c(NC(=O)c2ccc([N+](=O)[O-])c(N3CCC(F)(F)CC3)n2)cn1` [Compound 238] cannot be ordered by IC50: ≤ 100 nM for the first, ≤ 100 nM for the second.

`C[C@@H]1CN(c2nc(C(=O)Nc3cnc(NS(=O)(=O)[C@H](C)CO)cc3N3CCC4(CC3)CC4)ccc2[N+](=O)[O-])CCO1` [Compound 240] and `C[C@@H]1CN(c2nc(C(=O)Nc3cnc(S(=O)(=O)N[C@@H](C)CO)cc3N3CCC4(CC3)CC4)ccc2[N+](=O)[O-])CCO1` [Compound 255] cannot be ordered by IC50: ≤ 100 nM for the first, 100 to 500 nM for the second.

`O=C(Nc1cnc(S(=O)(=O)NCCO)cc1N1CCC2(CC1)CC2)c1ccc([N+](=O)[O-])c(N2CCC(F)(F)CC2)n1` [Compound 241] and `O=C(Nc1cnc(S(=O)(=O)NCCO)cc1N1CCC2(CC1)CC2)c1ccc([N+](=O)[O-])c(N2CC(F)(F)C2)n1` [Compound 244] fall in the same range of IC50: 100 to 500 nM for the first, 100 to 500 nM for the second.

`C[C@@H]1CN(c2nc(C(=O)Nc3cnc(S(=O)(=O)NCCO)cc3N3CCC4(CC3)CC4)ccc2[N+](=O)[O-])CCO1` [Compound 242] and `C[C@H]1CN(c2nc(C(=O)Nc3cnc(S(=O)(=O)NCCO)cc3N3CCC4(CC3)CC4)ccc2[N+](=O)[O-])CCO1` [Compound 243] fall in the same range of IC50: 100 to 500 nM for the first, 100 to 500 nM for the second.

`CC1(F)CCN(c2nc(C(=O)Nc3cnc(S(=O)(=O)NCCO)cc3N3CCC4(CC3)CC4)ccc2[N+](=O)[O-])C1` (centres unmarked) [Compound 248] and `O=C(Nc1cnc(S(=O)(=O)NCCO)cc1N1CCC2(CC1)CC2)c1ccc([N+](=O)[O-])c(N2CCOCC2)n1` [Compound 252] fall in the same range of IC50: 100 to 500 nM for the first, 100 to 500 nM for the second.

`C[C@@H](CO)NS(=O)(=O)c1cc(N2CCC3(CC2)CC3)c(NC(=O)c2ccc([N+](=O)[O-])c(N3CCC(F)(F)CC3)n2)cn1` [Compound 253] and `C[C@H](CO)NS(=O)(=O)c1cc(N2CCC3(CC2)CC3)c(NC(=O)c2ccc([N+](=O)[O-])c(N3CCC(F)(F)CC3)n2)cn1` [Compound 254] fall in the same range of IC50: 100 to 500 nM for the first, 100 to 500 nM for the second.

`C[C@H](CO)NS(=O)(=O)c1cc(N2CCC3(CC2)CC3)c(NC(=O)c2ccc([N+](=O)[O-])c(N3CCO[C@H](C)C3)n2)cn1` [Compound 256] and `COc1ccc(NC(=O)c2ccc(NS(=O)(=O)CCO)cc2N2CCC3(CC2)CC3)nc1N1CCOCC1` [Compound 268] cannot be ordered by IC50: 100 to 500 nM for the first, ≤ 100 nM for the second.

`COc1ccc(NC(=O)c2ccc(NS(=O)(=O)CCO)cc2N2CCC3(CC2)CC3)nc1N1CCC(C)(F)C1` (centres unmarked) [Compound 264] and `COc1ccc(NC(=O)c2ccc(NS(=O)(=O)CCO)cc2N2CCC3(CC2)CC3)nc1N1CCC(F)CC1` [Compound 265] cannot be ordered by IC50: ≤ 100 nM for the first, ≤ 100 nM for the second.

`COc1ccc(NC(=O)c2ccc(NS(=O)(=O)CCO)cc2N2CCC3(CC2)CC3)nc1N1CC2CC2C1` (centres unmarked) [Compound 266] and `COc1ccc(NC(=O)c2ccc(NS(=O)(=O)CCO)cc2N2CCC3(CC2)CC3)nc1NC(C)(C)CO` [Compound 267] cannot be ordered by IC50: ≤ 100 nM for the first, ≤ 100 nM for the second.

In the case of `COc1ccc(NC(=O)c2ccc(NS(=O)(=O)[C@@H](C)CO)cc2N2CCC3(CC2)CC3)nc1N1CCC(F)(F)CC1` [Compound 269], the IC50 is reported as ≤ 100 nM.
